The source made the active and inactive calls. No cut-off for these calls is given here.
Tests used:
Paracentrotus lividus [1] = test: Antimitotic activity in sea urchin fertilized egg assessed as cleavage arrest treated at 8 to 20 mins post-fertilization measured at 2.5 to 5.5 hrs post-fertilization; assay type: functional
Paracentrotus lividus [2] = test: Antimitotic activity in sea urchin fertilized egg assessed as cleavage alteration treated at 8 to 20 mins post-fertilization measured at 2.5 to 5.5 hrs post-fertilization; assay type: functional
Paracentrotus lividus [3] = test: Microtubule destabilizing activity in sea urchin free-swimming blastula assessed as embryo spinning treated at 9 to 10 hrs post-fertilization measured after 0.15 to 15 hrs; assay type: functional
Paracentrotus lividus [4] = test: Microtubule destabilizing activity in sea urchin free-swimming blastula assessed as embryo spinning up to 4 uM treated at 9 to 10 hrs post-fertilization measured after 0.15 to 15 hrs; assay type: functional, organism-based

SMILES | EC (Paracentrotus lividus [1]) [µM] | EC (Paracentrotus lividus [2]) [µM] | EC (Paracentrotus lividus [3]) [µM] | Activity (Paracentrotus lividus [4])
COc1ccc(-c2c(NC(C)=O)noc2-c2cc3c(c(OC)c2OC)OCO3)cc1 | >4 | >4 | >4 | –
COc1ccc(CCc2noc(-c3cc(OC)c4c(c3)OCCO4)n2)cc1 | – | – | – | inactive
COc1ccc(-c2noc(N)c2-c2cc(OC)c(OC)c(OC)c2)cc1 | 0.01 | 0.002 | 0.1 | –
COc1ccc(-c2onc(NC(C)=O)c2-c2ccc(OC)cc2)cc1 | >4 | >4 | >4 | –
COc1ccc(-c2c(-c3cc(OC)c(OC)c(OC)c3)noc2N(C(C)=O)C(C)=O)cc1 | 0.2 | 0.05 | 1 | –
COc1ccc(-c2c(-c3cc(OC)c4c(c3OC)OCO4)noc2N(C(C)=O)C(C)=O)cc1 | 2 | 0.5 | 5 | –
COc1ccc(-c2onc(NC(C)=O)c2-c2ccc([N+](=O)[O-])cc2)cc1 | >4 | >4 | >4 | –
COc1ccc(-c2c(N)noc2-c2cc(OC)c3c(c2)OCCO3)cc1 | 0.02 | 0.005 | 0.5 | –
COc1ccc(-c2c(NC(C)=O)noc2-c2cccc(OC)c2)cc1 | >4 | >4 | >4 | –
COc1ccc(Cc2noc(-c3cccc(OC)c3)n2)cc1 | – | – | – | inactive
COc1ccc(-c2c(NC(C)=O)noc2-c2cc(OC)c3c(c2OC)OCO3)cc1 | >4 | >4 | >4 | –
COc1ccc(-c2c(NC(C)=O)noc2-c2cc(OC)c3c(c2)OCCO3)cc1 | >4 | >4 | >4 | –
COc1ccc(-c2noc(N)c2-c2cc(OC)c3c(c2OC)OCO3)cc1 | >4 | 4 | >4 | –
COc1ccc(-c2onc(N)c2-c2cc3c(c(OC)c2OC)OCO3)cc1 | >4 | 4 | >4 | –
COc1ccc(-c2onc(N)c2-c2cc(OC)c3c(c2OC)OCO3)cc1 | >4 | >4 | >4 | –
COc1ccc(Cc2noc(-c3cc(OC)c4c(c3)OCO4)n2)cc1 | – | – | – | inactive
COc1ccc(Cc2noc(-c3ccc([N+](=O)[O-])cc3)n2)cc1 | – | – | – | inactive

SMILES | EC (Paracentrotus lividus [1]) [µM] | EC (Paracentrotus lividus [2]) [µM] | EC (Paracentrotus lividus [3]) [µM] | Activity (Paracentrotus lividus [4])
COc1ccc(C(=O)Nc2noc(-c3ccc(OC)cc3)c2-c2cc(OC)c(OC)c(OC)c2)cc1 | >4 | >4 | >4 | –
COc1ccc(Cc2noc(-c3cc(OC)c(OC)c(OC)c3)n2)cc1 | – | – | – | inactive
COc1ccc(-c2onc(N)c2-c2cc(OC)c(OC)c(OC)c2)cc1 | 0.02 | 0.004 | 0.2 | –
COc1ccc(-c2noc(N)c2-c2cc3c(c(OC)c2OC)OCO3)cc1 | >4 | >4 | >4 | –
COc1ccc(-c2c(NC(C)=O)noc2-c2cc(OC)c(OC)c(OC)c2)cc1 | >4 | >4 | >4 | –
COc1ccc(-c2onc(NC(C)=O)c2-c2cc(OC)c(OC)c(OC)c2)cc1 | >4 | >4 | >4 | –
COc1ccc(-c2nc(CCc3cc(OC)c(OC)c(OC)c3)no2)cc1 | – | – | – | inactive
COc1ccc(Cc2noc(-c3cc4c(c(OC)c3OC)OCO4)n2)cc1 | – | – | – | inactive
COc1ccc(-c2c(-c3cc(OC)c4c(c3)OCO4)noc2N(C(C)=O)C(C)=O)cc1 | 0.1 | 0.02 | 0.5 | –
COc1ccc(-c2c(-c3cc(OC)c4c(c3OC)OCO4)noc2N)cc1 | >5 | 2 | >5 | –
COc1ccc(-c2c(NC(C)=O)noc2-c2cc(OC)c3c(c2)OCO3)cc1 | >4 | >4 | >4 | –
COc1ccc(/C=C\c2cc(OC)c3c(c2)OCO3)cc1O [Combretastatin A-2] | 0.01 | 0.002 | 0.05 | –
COc1ccc(Cc2noc(-c3cc(OC)c4c(c3OC)OCO4)n2)cc1 | – | – | – | inactive
COc1ccc(-c2c(-c3ccccc3)noc2N)cc1OC | 10 | 0.5 | 10 | –
COc1ccc(-c2onc(NC(C)=O)c2-c2ccc(Cl)cc2)cc1 | >4 | >4 | >4 | –
COc1ccc(-c2noc(N)c2-c2ccc(Cl)cc2)cc1 | >4 | >4 | >4 | –

Reference: ChEMBL document CHEMBL3112491, “3-(5-)-Amino-o-diarylisoxazoles: regioselective synthesis and antitubulin activity” (2014)
